Patent publication US20140107051A1, “ISOFLAVONES FOR TREATING MUCOPOLYSACCHARIDOSES” (INSTYTUT FARMACEUTYCZNY, priority 2005, published 2014)
Where two headings read alike, the source gives them in different places.

Experiments:
[1] = tested on: fibroblasts of patients affected with MPS I; assay: 35S-sulphate incorporation test of glycosaminoglycans synthesis, MPS I cells; assay type: cell-based, human; settings: 30 μM; for activity at 30 µM: Homo sapiens, Fibroblast, read-out: Relative GAG synthesis (converted to 1 cell), MPS I; for activity at 30 µM / Relative GAG synthesis (converted to 1 cell), MPS I: DMSO control = 1
Description: (§1) The activity of isoflavones was evaluated by the measure of glycosaminoglycans synthesis in 35S-sulphate incorporation test comprising incubation of the radiolabelled 35S-sulfate into GAGs in cultured human skin fibroblasts derived from normal individuals (control) and patients affected with mucopolysaccharidose (Murata et al., Arch Biochem Biophys 2003; 413: 229-235).
(§2) The negative control was DMSO (diluent for genistein and all derivatives), the positive control—genistein. […] Experiment with each cell line has been repeated twice, and every measurement has been done twice.

[2] = tested on: cultured human skin fibroblasts derived from normal individuals; assay: 35S-sulphate incorporation test of glycosaminoglycans synthesis, normal cells; assay type: cell-based; settings: 30 μM; for activity at 30 µM: Homo sapiens, Skin fibroblast, read-out: Relative GAG synthesis (converted to 1 cell), Normal cells; for activity at 30 µM / Relative GAG synthesis (converted to 1 cell), Normal cells: DMSO control = 1
Description: as §1, §2

MPS IIIA fibroblasts = assay: Number of lysosomal structures by electron microscopy, MPS IIIA; assay type: cell-based, human; settings: 30 μM
MPS IIIB fibroblasts = assay: Number of lysosomal structures by electron microscopy, MPS IIIB; assay type: cell-based, human; settings: 30 μM
[3] = Proliferation 144 h (Table 4); assay type: cell-based; settings: read-out: Proliferation 144 h IC50
[4] = tested on: cultured human skin fibroblasts derived from patients affected with mucopolysaccharidose; assay: 35S-sulphate incorporation test of glycosaminoglycans synthesis, different human cell lines / MPS types; assay type: cell-based; settings: 30 μM; both cell lines of Table 2
Description: as §1, §2

[5] = tested on: glycosaminoglycan (GAG) synthesis; assay: GAG synthesis, 35S incorp. (Table 4); assay type: cell-based
[6] = read-out: Cytotoxicity 24 h LC50, 24 h
[7] = read-out: Cytotoxicity 48 h LC50, 48 h

| SMILES | activity at 30 µM [1] | activity at 30 µM [2] | CC50 at 24 h (in vitro) | CC50 at 48 h (in vitro) | Number of structures per 100 μm^2 of cellular cross section ± SD, amorphous (MPS IIIA fibroblasts) | Number of structures per 100 μm^2 of cellular cross section ± SD, complexed (MPS IIIA fibroblasts) | Number of structures per 100 μm^2 of cellular cross section ± SD, lamellar (MPS IIIA fibroblasts) | Number of structures per 100 μm^2 of cellular cross section ± SD, total number (MPS IIIA fibroblasts) | Number of structures per 100 μm^2 of cellular cross section ± SD, amorphous (MPS IIIB fibroblasts) | Number of structures per 100 μm^2 of cellular cross section ± SD, complexed (MPS IIIB fibroblasts) | Number of structures per 100 μm^2 of cellular cross section ± SD, lamellar (MPS IIIB fibroblasts) | Number of structures per 100 μm^2 of cellular cross section ± SD, total number (MPS IIIB fibroblasts) | IC50 [3] | Inhibition in relation to genistein, first symbol (normal cells) [2] | influence on GAG synthesis compared with genistein (in words) [4] | also measured |
| --- | --- | --- | --- | --- | --- | --- | --- | --- | --- | --- | --- | --- | --- | --- | --- | --- |
| O=C(Oc1cc(O)c2c(=O)c(-c3ccc(O)cc3)coc2c1)c1ccccc1O [IFG-034] | 93% | 40% | > 30 µM | > 30 µM | 0.17 ± 0.09 per 100 μm^2 | 0.27 ± 0.14 per 100 μm^2 | 0.17 ± 0.09 per 100 μm^2 | 0.61 ± 0.20 per 100 μm^2 | 0.15 ± 0.08 per 100 μm^2 | 0.06 ± 0.05 per 100 μm^2 | 0.20 ± 0.16 per 100 μm^2 | 0.41 ± 0.16 per 100 μm^2 | 22.9 µM |  |  |  |
| O=C(O)COc1cc(O)c2c(=O)c(-c3ccc(O)cc3)coc2c1 [IFG-054] | 53% | 30% | > 30 µM | > 30 µM |  |  |  |  |  |  |  |  | > 30 µM | 0/0 |  |  |
| CC(=O)Oc1ccc(-c2coc3cc(OC(C)=O)cc(OC(C)=O)c3c2=O)cc1 [IFG-032] | 68% | 25% | > 30 µM | > 30 µM | 0.17 ± 0.16 per 100 μm^2 | 0.22 ± 0.11 per 100 μm^2 | 0.14 ± 0.08 per 100 μm^2 | 0.53 ± 0.19 per 100 μm^2 | 0.12 ± 0.08 per 100 μm^2 | 0.10 ± 0.07 per 100 μm^2 | 0.17 ± 0.11 per 100 μm^2 | 0.40 ± 0.20 per 100 μm^2 | 17.4 µM | 0 | an activity comparable with genistein, but only for one cell line |  |
| C=CCOc1cc(O)c2c(=O)c(-c3ccc(OC(=O)c4ccccc4OC(C)=O)cc3)coc2c1 [IFG-052] | 85% | 75% | 15.8 µM | 21.5 µM |  |  |  |  |  |  |  |  | 12.2 µM |  | an activity comparable with genistein, but only for one cell line |  |
| CC(C)(C#N)c1cc(COc2ccc(-c3coc4cc(OCc5ccccc5)cc(O)c4c3=O)cc2)cc(C(C)(C)C#N)c1 [IFG-053] | 52% | 30% | > 30 µM | > 30 µM |  |  |  |  |  |  |  |  | 53 µM | 0/0 | an activity comparable with genistein |  |
| O=C([O-])CCCC(=O)Oc1ccc(-c2coc3cc(OCc4ccccc4)cc(O)c3c2=O)cc1.[Na+] [IFG-061] |  |  |  |  |  |  |  |  |  |  |  |  |  | 0/0 |  | CC50 [6]: 18.8 µM; Relative GAG synthesis (converted to 1 cell), MPS I [1]: 0.46; Relative GAG synthesis (converted to 1 cell), Normal cells [2]: 0.28 |
| CCC(=O)OCOc1cc(O)c2c(=O)c(-c3ccc(O)cc3)coc2c1 [IFG-036] |  |  |  |  | 0.22 ± 0.11 per 100 μm^2 | 0.28 ± 0.16 per 100 μm^2 | 0.19 ± 0.14 per 100 μm^2 | 0.73 ± 0.31 per 100 μm^2 | 0.15 ± 0.18 per 100 μm^2 | 0.12 ± 0.11 per 100 μm^2 | 0.25 ± 0.21 per 100 μm^2 | 0.50 ± 0.34 per 100 μm^2 | 11.2 µM | 0/0 | an activity comparable with genistein | CC50 [6]: > 30 µM; CC50 [7]: > 30 µM; Inhibition in relation to genistein, second symbol (MPS I) [1]: 0/0; Relative GAG synthesis (converted to 1 cell), MPS I [1]: 0.49; GAG synthesis 35S incorp. [5]: 64 ± 21%; Relative GAG synthesis (converted to 1 cell), Normal cells [2]: 0.27 |
| Cc1ccc(S(=O)(=O)OCCOCCOCCOc2cc(O)c3c(=O)c(-c4ccc(O)cc4)coc3c2)cc1 [IFG-046] |  |  |  |  |  |  |  |  |  |  |  |  |  | − |  | CC50 [6]: 20.7 µM; Inhibition in relation to genistein, second symbol (MPS I) [1]: 0; Relative GAG synthesis (converted to 1 cell), MPS I [1]: 0.49; GAG synthesis 35S incorp. [5]: 118 ± 72%; Relative GAG synthesis (converted to 1 cell), Normal cells [2]: 1.80 |
| O=c1c(-c2ccc(O)cc2)coc2cc(OCCCO)cc(O)c12 [IFG-072, 5-hydroxy-3-(4-hydroxyphenyl)-7-(3-hydroxypropoxy)-chromen-4-one] |  |  | > 30 µM | 32.5 µM | 0.34 ± 0.17 per 100 μm^2 | 0.28 ± 0.10 per 100 μm^2 | 0.20 ± 0.10 per 100 μm^2 | 0.82 ± 0.23 per 100 μm^2 | 0.14 ± 0.10 per 100 μm^2 | 0.16 ± 0.08 per 100 μm^2 | 0.11 ± 0.12 per 100 μm^2 | 0.41 ± 0.20 per 100 μm^2 | 14.1 µM |  |  |  |
| COC(=O)COc1cc(O)c2c(=O)c(-c3ccc(O)cc3)coc2c1 [IFG-070, [5-hydroxy-3-(4-hydroxyphenyl)-4-oxo-4H-chromen-7-yloxy]-acetic acid methyl ester] |  |  | > 30 µM | > 30 µM |  |  |  |  |  |  |  |  | 48.1 µM |  |  |  |
| CCCC[N+](CCCC)(CCCC)CCCC.O=C([O-])COc1cc(O)c2c(=O)c(-c3ccc(O)cc3)coc2c1 [IFG-074, tetrabutylammonium[5-hydroxy-3-(4-hydroxy-phenyl)-4-oxo-4H-chromen-7-yloxy]acetate] |  |  |  |  |  |  |  |  |  |  |  |  | 27.3 µM |  |  | CC50 [6]: 44.1 µM; CC50 [7]: 32.8 µM; GAG synthesis 35S incorp. [5]: 88 ± 39% |
| CC(C)Oc1ccc(-c2coc3cc(O)cc(O)c3c2=O)cc1 [IFG-066] | 44% | 23% | > 30 µM | > 30 µM | 0.18 ± 0.19 per 100 μm^2 | 0.16 ± 0.08 per 100 μm^2 | 0.13 ± 0.10 per 100 μm^2 | 0.48 ± 0.17 per 100 μm^2 | 0.08 ± 0.06 per 100 μm^2 | 0.11 ± 0.14 per 100 μm^2 | 0.15 ± 0.10 per 100 μm^2 | 0.34 ± 0.23 per 100 μm^2 | 14.6 µM | 0/0 |  |  |
| CCCCCCCCCCCCCCCC(=O)Oc1cc(O)c2c(=O)c(-c3ccc(O)cc3)coc2c1 [IFG-018] | 51% | 37% | 41.7 µM | 23.8 µM |  |  |  |  |  |  |  |  | 24.9 µM | 0/0 | stronger influence on GAG synthesis than genistein |  |
| O=c1c(-c2ccc(O)cc2)coc2cc(OCCO)cc(O)c12 [IFG-073, 5-hydroxy-7-(2-hydroxyethoxy)-3-(4-hydroxyphenyl)-chromen-4-one] |  |  | 27.5 µM | 21.7 µM |  |  |  |  |  |  |  |  | 16.1 µM |  |  |  |
| CC(=O)OCCCCCOc1cc(O)c2c(=O)c(-c3ccc(O)cc3)coc2c1 [IFG-071, acetic acid 5-[5-hydroxy-3-(4-hydroxyphenyl)-4-oxo-4H-chromen-7-yloxy]-pentyl ester] |  |  | > 30 µM | 57.6 µM | 0.25 ± 0.11 per 100 μm^2 | 0.26 ± 0.09 per 100 μm^2 | 0.28 ± 0.13 per 100 μm^2 | 0.79 ± 0.22 per 100 μm^2 | 0.13 ± 0.09 per 100 μm^2 | 0.07 ± 0.06 per 100 μm^2 | 0.07 ± 0.07 per 100 μm^2 | 0.26 ± 0.13 per 100 μm^2 | 17.9 µM |  |  |  |
